Test results taken from PubChem BioAssay AID179 (DTP/NCI, 2004).
Active and inactive are the calls of the source.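 Rule for the calls: active = compounds giving half or more protection of infected cells from virus-caused growth loss, again on retest; inactive = the rest.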

System: CEM cells HIV-1 protection, formazan growth assay
Experiment: NCI AIDS Antiviral Assay
Details: for IC50: measured here: growth of uninfected CEM cells
Procedure, shortened: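 CEM (human) cells, HIV-1 infected vs uninfected, 5-point dosing, formazan growth read-out. Retest threshold 50% protection.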

SMILES | EC50 | IC50 | outcome
CCCCCSP(=S)(C(C)C)C(C)C | > 200 µM | 115 µM | 
S=C(NNC1=NCCCCN1)Nc1ccc(Cl)cc1 | > 200 µM | 18.6 µM | 
CCN(CC)C(=O)CCn1ccc(=O)[nH]c1=O | > 1050 µM | > 1050 µM | 
COc1ccc(NCC/C=C\[Si](C)(C)C)cc1 |  |  | inactive
COc1ccccc1CO[C@]1(C)CNCC(C)(C)NC(=O)[C@](C)(OCc2ccccc2OC)CNCC(C)(C)NC1=O | > 200 µM | 91.2 µM | 
CC1OC(OC23C(=O)C[C@](C)(O)CC2(O)C=CC2C3=c3oc(-c4ccc(O)cc4)c4c3=C(C(=O)C(C3CC(OC5CCC(OC6CC(O)C(O)C(C)O6)C(C)O5)C(O)C(C)O3)=C4)C2O)CCC1O (stereo partly specified) | > 19.1 µM | > 19.1 µM | 
N#CCCC1C(C#N)C2(Cl)CC1(Cl)C(Cl)=C2Cl (stereo unspecified) | > 200 µM | 23.4 µM | 
NNC(=O)Cn1c2ccc(Br)cc2c2nc3ccccc3nc21 | > 200 µM | 28.2 µM | 
COc1ccc2nc3ccc(OC)cc3c(SCCO)c2c1 | > 200 µM | 8.51 µM | 
CC(=O)O[C@]12CCCCCCC1C1(O)C(O)CCC[C@H]12 (stereo partly specified) | > 200 µM | > 200 µM | 
COc1ccc(N2C(=O)C(C#N)=C(SC)C(C#N)C2=O)cc1 (stereo unspecified) | > 200 µM | 174 µM | 
N#CNC1=NC(Cc2ccccc2)C(=O)N1CCc1c[nH]c2ccccc12 (stereo unspecified) | > 200 µM | 31.6 µM | 
Cc1cn(C2CC(N=[N+]=[N-])C(COC(=O)C(O)[C@@]3(O)CC[C@H]4[C@@H]5CCC6=CC(=O)C=C[C@]6(C)[C@H]5[C@@H](O)C[C@@]43C)O2)c(=O)[nH]c1=O (stereo partly specified) | 0.708 µM | > 200 µM | 
Nn1c(CNc2ccc(-c3nnc(Nc4ccc(Cl)cc4)n3N)cc2)nnc1Nc1ccc(Cl)cc1 | > 200 µM | 67.6 µM | 
CC(C)N(C(C)C)P1O[PH+](N(C(C)C)C(C)C)OP(N(C(C)C)C(C)C)O[PH+](N(C(C)C)C(C)C)O1.[C-]#[O+].[C-]#[O+].[C-]#[O+].[C-]#[O+].[W] (stereo unspecified) | > 200 µM | > 200 µM | 
CCOC(=O)/C(=C\c1ccco1)C(C)=O | > 240 µM | > 240 µM | 
c1ccc2nocc2c1 | > 2090 µM | 1100 µM | 
O=C(NNC(=S)NC1CCCCC1)C12CC3CC(CC(C3)C1)C2 | > 200 µM | > 200 µM | 
CCCC(/C=N/N=C(N)N)=N\N=C(N)N | > 83.2 µM | > 83.2 µM | 
CCc1c(Sc2ccccn2)n(COCc2ccccc2)c(=O)[nH]c1=O | 91.2 µM | 339 µM | 
S=C1Cc2c(-c3ccccc3)cc(-c3ccc(Cl)cc3)nc2-c2ccccc2N1 | > 200 µM | 3.39 µM | 
CCOc1ccc(NC(=S)/N=C/C(C(=O)Nc2ccccc2C)=C(\C)O)cc1 | > 200 µM | > 200 µM | 
COC(=O)[C@]1(C)CCC[C@]2(C)c3cc(C(C)=O)c(C(C)C)cc3CC[C@@H]12 | > 200 µM | 25.7 µM | 

SMILES | EC50 | IC50 | outcome
COC1=CC2=C3[C@H](Cc4cc5c(c(c4)Oc4ccc(cc4)C[C@@H]4c6cc7c(cc6CCN4C)OC[C@]3(O7)C1=O)OCO5)N(C)CC2 |  |  | inactive
OCC1OC(n2cnc3cccnc32)CC1O (stereo unspecified) | > 200 µM | > 200 µM | 
COc1ccc(-c2cc(=O)c3ccc(O)cc3o2)cc1OC | > 100 µM | 24 µM | 
O=C1/C(=C/c2ccc(F)cc2)CCc2ccccc21 | > 10.7 µM | > 10.7 µM | 
O=[N+]([O-])c1cccnc1NCC1(CO)CCCC1 | > 200 µM | 46.8 µM | 
Brc1ccc(/C=C2\C=Cc3ccccc32)cc1 | > 25.7 µM | > 25.7 µM | 
CC(=O)NS(=O)(=O)c1ccc(N=Cc2ccc3c(c2)OCO3)cc1 | > 200 µM | > 200 µM | 
Cc1ccc(SCC(OCn2cnc3c(Cl)nc(N)nc32)[C@H](C)F)cc1 (stereo partly specified) | > 200 µM | 24 µM | 
CCOC(=O)CC(=O)Sc1ccccc1 | > 251 µM | 20.9 µM | 
C=C1C(=O)OC2(C)CCC1CC1OC1(C)CCC=C(C)CCC2O (stereo unspecified) | > 389 µM | 32.4 µM | 
CN1CCC23c4c5ccc(O)c4OC2C(=NN=C2CCC4(O)C6Cc7ccc(O)c8c7C4(CCN6C)C2O8)CCC3(O)C1C5 (stereo unspecified) | > 200 µM | 105 µM | 
CC1OC(OC2C(O)C(O)C(N=C(N)N)C(O)C2N=C(N)N)C(OC2OC(CO)C(O)C(O)C2N(C)C=N)C1(O)CO (stereo unspecified) |  |  | inactive
COc1cc(C)cc2c1C(=O)C(Br)=CC2=O | > 200 µM | 1.95 µM | 
CC(=O)OCC1C(OC(C)=O)C(OC(C)=O)C(OC(C)=O)P1(=O)c1ccccc1 (stereo unspecified) | > 589 µM | 537 µM | 
O=c1cc(N=Nc2ccc(Br)cc2)[nH]c(=S)[nH]1 | > 200 µM | 1.1 µM | 
Cc1nn(-c2ccccc2)c(CC(Cc2c([N+](=O)[O-])c(C)nn2-c2ccccc2)c2ccccc2)c1[N+](=O)[O-] | > 10 µM | > 10 µM | 
N#CC(=C(c1ccccc1)c1ccccc1)c1ccccc1 | > 151 µM | > 151 µM | 
CC1=N/C(=C\c2ccc(Cl)cc2)C(=O)O1 | > 32.4 µM | > 32.4 µM | 
N/C(=N\N=C\c1ccc(C(F)(F)F)cc1)NO | > 427 µM | > 427 µM | 
O=C1C=CC(=O)c2cc(Sc3ccccc3)c(=O)ccc21 | > 123 µM | 1.26 µM | 
O=C(NNc1ccccc1)C(O)C(O)C(O)C(O)C(O)CO (stereo unspecified) |  |  | inactive
CC1CC(C)(C)OB(OC(C)CC(C)(C)OB2OC(C)CC(C)(C)O2)O1 (stereo unspecified) | > 200 µM | > 200 µM | 
